Patent US12545685B2 (Daiichi Sankyo Company, Limited, priority 2011, dated 2026)

Target: T1, Mdm2/p53 binding (GST-Mdm2 / His-p53) (Homo sapiens, UniProt Q00987, L33E)
T1 construct: Mdm2 partial protein having Mdm2 amino acids at positions 25 to 108
Assay: Mdm2/p53 binding assay (HTRF, His-p53 and GST-Mdm2)
Conditions: His-p53 (aa 1-132) and GST-Mdm2 (aa 25-108, L33E) 6.25 nM each; 25°C, 1 hour; values given as ranges
Summary of the method: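 His-p53 (aa 1–132) and GST-Mdm2 (aa 25–108, L33E) were prepared at 6.25 nM each in the protein dilution (20 mM HEPES pH 7.4, 150 mM NaCl, 0.1% BSA). Compound in 10% DMSO buffer and XL665 anti-His/Eu anti-GST antibodies (KF buffer) were added, with 1 h at 25 °C. The 665/620 nm TR-FRET ratio gave T/C and a sigmoid-fitted IC50.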

T1 sequence (Q00987 25-108 L33E): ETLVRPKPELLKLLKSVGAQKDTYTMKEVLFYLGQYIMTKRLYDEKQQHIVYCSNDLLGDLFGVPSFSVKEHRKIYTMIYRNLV

Structure (SMILES)	IC50
O=C(N[C@@H]1CC[C@@H](c2nnco2)OC1)[C@@H]1NC2(CC(CF)(CF)C2)[C@@]2(C(=O)Nc3cc(Cl)ccc32)[C@H]1c1cccc(Cl)c1F [Example 136, (3′R, 4′S,5′R)-6″-chloro-4′-(3-chloro-2-fluorophenyl)-3,3-bis(fluoromethyl)-N-[(3R,6S)-6-(1,3,4-oxadiazol-2-yl)tetrahydro-2H-pyran-3-yl]-2″-oxo-1″,2″-dihydrodispiro[cyclobutane-1,2′-pyrrolidine-3′,3″-indole]-5′-carboxamide]	1 to 50 nM
O=C(NC1CCOCC1)[C@@H]1CC[C@@H](NC(=O)[C@@H]2NC3(CC(CF)(CF)C3)[C@@]3(C(=O)Nc4cc(Cl)ccc43)[C@H]2c2cccc(Cl)c2F)CO1 [Example 137, (3′R, 4′S,5′R)-6″-chloro-4′-(3-chloro-2-fluorophenyl)-3,3-bis(fluoromethyl)-2″-oxo-N-[(3R,6S)-6-(tetrahydro-2H-pyran-4-ylcarbamoyl)tetrahydro-2H-pyran-3-yl]-1″,2″-dihydrodispiro[cyclobutane-1,2′-pyrrolidine-3′,3″-indole]-5′-carboxamide]	50 to 100 nM
O=C(NCCF)[C@@H]1CC[C@@H](NC(=O)[C@@H]2NC3(CC(CF)(CF)C3)[C@@]3(C(=O)Nc4cc(Cl)ccc43)[C@H]2c2cccc(Cl)c2F)CO1 [Example 138, (3′R, 4′S,5′R)-6″-chloro-4′-(3-chloro-2-fluorophenyl)-N-{(3R,6S)-6-[(2-fluoroethyl)carbamoyl]tetrahydro-2H-pyran-3-yl}-3,3-bis(fluoromethyl)-2″-oxo-1″,2″-dihydrodispiro[cyclobutane-1,2′-pyrrolidine-3′,3″-indole]-5′-carboxamide]	50 to 100 nM
COCCN(C)C(=O)[C@@H]1CC[C@@H](NC(=O)[C@@H]2NC3(CC(CF)(CF)C3)[C@@]3(C(=O)Nc4cc(Cl)ccc43)[C@H]2c2cccc(Cl)c2F)CO1 [Example 139, (3′R, 4′S,5′R)-6″-chloro-4′-(3-chloro-2-fluorophenyl)-3,3-bis(fluoromethyl)-N-[(3R,6S)-6-[(2-methoxyethyl)(methyl)carbamoyl]tetrahydro-2H-pyran-3-yl]-2″-oxo-1″,2″-dihydrodispiro[cyclobutane-1,2′-pyrrolidine-3′,3″-indole]-5′-carboxamide]	1 to 50 nM
CN(C)C(=O)[C@@H]1CC[C@@H](NC(=O)[C@@H]2NC3(CCC(C)(C)CC3)[C@@]3(C(=O)Nc4cc(Cl)ccc43)[C@H]2c2ccnc(Cl)n2)CO1 [Example 140, (3′R, 4′R, 5′R)-6″-chloro-4′-(2-chloropyrimidin-4-yl)-N-[(3R,6S)-6-(dimethylcarbamoyl)tetrahydro-2H-pyran-3-yl]-4,4-dimethyl-2″-oxo-1″,2″-dihydrodispiro[cyclohexane-1,2′=pyrrolidine-3′,3″-indole]-5′-carboxamide]	50 to 100 nM
CCNC(=O)[C@@H]1CC[C@@H](NC(=O)[C@@H]2NC3(CC(CF)(CF)C3)[C@@]3(C(=O)Nc4cc(Cl)ccc43)[C@H]2c2cccc(Cl)c2F)CO1 [Example 141]	1 to 50 nM
COCCNC(=O)[C@@H]1CC[C@@H](NC(=O)[C@@H]2NC3(CC(CF)(CF)C3)[C@@]3(C(=O)Nc4cc(Cl)ccc43)[C@H]2c2cccc(Cl)c2F)CO1 [Example 142, (3′R, 4′S,5′R)-6″-chloro-4′-(3-chloro-2-fluorophenyl)-3,3-bis(fluoromethyl)-N-{(3R,6S)-6-[(2-methoxyethyl)carbamoyl]tetrahydro-2H-pyran-3-yl}-2″-oxo-1″,2″-dihydrodispiro[cyclobutane-1,2′-pyrrolidine-3′,3″-indole]-5′-carboxamide]	1 to 50 nM
COC[C@@H]1CC[C@@H](NC(=O)[C@@H]2NC3(CC(CF)(CF)C3)[C@@]3(C(=O)Nc4cc(Cl)ccc43)[C@H]2c2cccc(Cl)c2F)CO1 [Example 143, (3′R, 4′S,5′R)-6″-chloro-A′-(3-chloro-2-fluorophenyl)-3,3-bis(fluoromethyl)-N-[(3R,6S)-6-(methoxymethyl)tetrahydro-2H-pyran-3-yl]-2″-oxo-1″,2″-dihydrodispiro[cyclobutane-1,2′-pyrrolidine-3′,3″-indole]-5′-carboxamide]	50 to 100 nM
CN(C)C(=O)[C@H]1C[C@H](NC(=O)[C@@H]2NC3(CC(CF)(CF)C3)[C@@]3(C(=O)Nc4cc(Cl)ccc43)[C@H]2c2cccc(Cl)c2F)C1 [Example 145, (3′R, 4′S,5′R)-6″-chloro-4′-(3-chloro-2-fluorophenyl)-N-[trans-3-(dimethylcarbamoyl)cyclobutyl]-3,3-bis(fluoromethyl)-2″-oxo-1″,2″-dihydrodispiro[cyclobutane-1,2′-pyrrolidine-3′,3″-indole]-5′-carboxamide]	50 to 100 nM
CN(C)C(=O)[C@H]1CC[C@H](NC(=O)[C@@H]2NC3(CC(CF)(CF)C3)[C@@]3(C(=O)Nc4cc(Cl)ccc43)[C@H]2c2cccc(Cl)c2F)CC1 [Example 148, (3′R, 4′S,5′R)-6″-chloro-4′-(3-chloro-2-fluorophenyl)-N-[trans-4-(dimethylcarbamoyl)cyclohexyl]-3,3-bis(fluoromethyl)-2″-oxo-1″,2″-dihydrodispiro[cyclobutane-1,2′-pyrrolidine-3′,3″-indole]-5′-carboxamide]	1 to 50 nM
NC(=O)C[C@@H]1CC[C@@H](NC(=O)[C@@H]2NC3(CC(CF)(CF)C3)[C@@]3(C(=O)Nc4cc(Cl)ccc43)[C@H]2c2cccc(Cl)c2F)CO1 [Example 149, (3′R, 4′S,5′R)—N-[(3R,6S)-6-(2-amino-2-oxoethyl)tetrahydro-2H-pyran-3-yl]-6″-chloro-4′-(3-chloro-2-fluorophenyl)-3,3-bis(fluoromethyl)-2″-oxo-1″,2″-dihydrodispiro[cyclobutane-1,2′-pyrrolidine-3′,3″-indole]-5′-carboxamide]	50 to 100 nM
CNC(=O)C[C@@H]1CC[C@@H](NC(=O)[C@@H]2NC3(CCC(C)(C)CC3)[C@@]3(C(=O)Nc4cc(Cl)ccc43)[C@H]2c2ccnc(Cl)c2F)CO1 [Example 150, (3′R, 4′S,5′R)-6″-chloro-4′-(2-chloro-3-fluoropyridin-4-yl)-4,4-dimethyl-N-{(3R,6S)-6-[2-(methylamino)-2-oxoethyl]tetrahydro-2H-pyran-3-yl}-2″-oxo-1″,2″-dihydrodispiro[cyclohexane-1,2′-pyrrolidine-3′,3″-indole]-5′-carboxamide]	1 to 50 nM
CNC(=O)C[C@@H]1CC[C@@H](NC(=O)[C@@H]2NC3(CC(CF)(CF)C3)[C@@]3(C(=O)Nc4cc(Cl)ccc43)[C@H]2c2cccc(Cl)c2F)CO1 [Example 151, (3′R, 4′S,5′R)-6″-chloro-4′-(3-chloro-2-fluorophenyl)-3,3-bis(fluoromethyl)-N-{(3R,6S)-6-[2-(methylamino)-2-oxoethyl]tetrahydro-2H-pyran-3-yl}=2″-oxo-1″,2″-dihydrodispiro[cyclobutane-1,2′-pyrrolidine-3′,3′-indole]-5′-carboxamide]	1 to 50 nM
CN(C)C(=O)C[C@@H]1CC[C@@H](NC(=O)[C@@H]2NC3(CCC(C)(C)CC3)[C@@]3(C(=O)Nc4cc(Cl)ccc43)[C@H]2c2ccnc(Cl)c2F)CO1 [Example 152, (3′R, 4′S,5′R)-6″-chloro-4′-(2-chloro-3-fluoropyridin-4-yl)-N-{(3R,6S)-6-[2-(dimethylamino)-2-oxoethyl]tetrahydro-2H-pyran-3-yl}-4,4-dimethyl-2″-oxo-1″,2″-dihydrodispiro[cyclohexane-1,2′-pyrrolidine-3′,3″-indole]-5′-carboxamide]	1 to 50 nM
CN(C)C(=O)C[C@@H]1CC[C@@H](NC(=O)[C@@H]2NC3(CC(CF)(CF)C3)[C@@]3(C(=O)Nc4cc(Cl)ccc43)[C@H]2c2cccc(Cl)c2F)CO1 [Example 153, (3′R, 4′S,5′R)-6″-chloro-4′-(3-chloro-2-fluorophenyl)-N-{(3R,6S)-6-[2-(dimethylamino)-2-oxoethyl]tetrahydro-2H-pyran-3-yl}-3,3-bis(fluoromethyl)-2″-oxo-1″,2″-dihydrodispiro[cyclobutane-1,2′-pyrrolidine-3′,3′-indole]-5′-carboxamide]	1 to 50 nM
CC1(C)CCC2(CC1)N[C@@H](C(=O)N[C@H]1CC[C@H](c3nncs3)CC1)[C@H](c1ccnc(Cl)c1F)[C@]21C(=O)Nc2cc(Cl)ccc21 [Example 155, (3′R, 4′S,5′R)-6″-chloro-4′-(2-chloro-3-fluoropyridin-4-yl)-4,4-dimethyl-2″-oxo-N-[trans-4-(1,3,4-thiadiazol-2-yl)cyclohexyl]-1″,2″-dihydrodispiro[cyclohexane-1,2′-pyrrolidine-3′,3″-indole]-5′-carboxamide]	50 to 100 nM
NC(=O)[C@@H]1CC[C@@H](NC(=O)[C@@H]2NC3(CC(CF)(CF)C3)[C@@]3(C(=O)Nc4cc(Cl)ccc43)[C@H]2c2ccnc(Cl)c2F)CO1 [Example 158, (3′R, 4′S,5′R)—N-[(3R,6S)-6-carbamoyltetrahydro-2H-pyran-3-yl]-6″-chloro-4′-(2-chloro-3-fluoropyridin-4-yl)-3,3-bis(fluoromethyl)-2″-oxo-1″,2″-dihydrodispiro[cyclobutane-1,2′-pyrrolidine-3′,3″-indole]-5′-carboxamide]	1 to 50 nM
COCc1nnc([C@H]2CC[C@H](NC(=O)[C@@H]3NC4(CCC(C)(C)CC4)[C@@]4(C(=O)Nc5cc(Cl)ccc54)[C@H]3c3ccnc(Cl)c3F)CC2)o1 [Example 159]	50 to 100 nM
O=C(N[C@@H]1CC[C@@H](CO)OC1)[C@@H]1NC2(CC(CF)(CF)C2)[C@@]2(C(=O)Nc3cc(Cl)c(F)cc32)[C@H]1c1ccnc(Cl)c1F [Example 163, (3′R, 4′S,5′R)-6″-chloro-4′-(2-chloro-3-fluoropyridin-4-yl)-5″-fluoro-3,3-bis(fluoromethyl)-N-[(3R,6S)-6-(hydroxymethyl)tetrahydro-2H-pyran-3-yl]-2″-oxo-1″,2″-dihydrodispiro[cyclobutane-1,2′-pyrrolidine-3′,3″-indole]-5′-carboxamide]	50 to 100 nM
